Test system: interleukin-6 (IL-6)
Experiment: Skin organotypic culture analysis: AP-induced IL-6 release into the medium
Assay type: cell-based
Conditions: for IL-6 release (mean ± SD): 24 h, Nil 21.5, AP 57.1
Experimental: (§1) The cultures were then incubated at 37° C., 5% CO2, and 95% relative humidity (standard cell culture conditions) for 24 h. The culture medium was assayed for the pro-inflammatory cytokine interleukin-6 (IL-6) and after washing to remove the AP formulation, the viability of the culture was determined using the Thiazoyl blue (MTT) assay (Mosmann, T. J. Immunol. Methods 65, p55 (1983). IL-6 was determined using an Immunoassay (Quantikine, R&D systems).
In this Example, skin organotypic cultures (Epiderm™, MatTek, USA) were treated topically with the above-identified AP formulation and the trans-10-cis-12 conjugated linoleic acid (TC CLA) was introduced into the medium. The cultures were then incubated at 37° C., 5% CO2, and 95% relative humidity (standard cell culture conditions) for 24 h. The culture medium was assayed for the pro-inflammatory cytokine interleukin-6 (IL-6) and after washing to remove the AP formulation, the viability of the culture was determined by the method described in Example 2.
as §1, with “hours.” for “h.”, “MTT assay.” for “Thiazoyl blue (MTT) assay (Mosmann, T. J. Immunol. Methods 65, p55 (1983).”, “ELISA assay (R&D” for “Immunoassay (Quantikine, R&D”

## CC\C=C/C=C/C=C/C=C\CCCCCCCC(=O)O [cis parinaric acid, cis-parinaric acid]
1-100 μM, Dunnet's test p<0.05
  AP-induced IL-6 release: significantly decrease
Table 14: 1.0 μM (+ AP)
  IL-6 release (mean ± SD): 26.8
Table 14: 10.0 μM (+ AP)
  IL-6 release (mean ± SD): 23.3
Table 14: 100.0 μM (+ AP)
  IL-6 release (mean ± SD): 25.7

Source: patent US6713051B2, “Antiperspirant or deodorant compositions” (Unilever Home & Personal Care USA division of Conopco, Inc., priority 2001, dated 2004)
